Measurements reported in US20260158009A1 (GENZYME CORPORATION, priority 2023, published 2026).

Columns and labels:
U937 cells = assay: Cellular assay in U937 cells: activity of RIPK1 inhibitors on TNFα/zVAD.fmk-induced cell death (necroptosis), CellTiter 96 AQueous (MTS) readout; type: cell-based; details: Homo sapiens, U-937
In short: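 Necroptosis was measured by viable-cell MTS reduction (4 h, absorbance 490 nm) after overnight (18–24 h) 37° C culture. Cell suspensions of U937 cells carried TNFα (100 ng/ml) plus zVAD.fmk (50 μM) before compound was added. A 10-point curve (10 μM–0.26 nM or 1 μM–0.07 nM) was run in duplicate, normalised to the control lacking TNFα/zVAD.fmk.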

[1] = molecular target: T1, hRIPK1 (aa 1-375) fusion protein (Homo sapiens, UniProt Q13546); assay: ADP-Glo kinase assay: catalytic activity of RIPK1 (autophosphorylation, conversion of ATP to ADP); type: biochemical
T1 construct: hRIPK1 (aa 1-375) fusion protein
T1 sequence (Q13546 1-375): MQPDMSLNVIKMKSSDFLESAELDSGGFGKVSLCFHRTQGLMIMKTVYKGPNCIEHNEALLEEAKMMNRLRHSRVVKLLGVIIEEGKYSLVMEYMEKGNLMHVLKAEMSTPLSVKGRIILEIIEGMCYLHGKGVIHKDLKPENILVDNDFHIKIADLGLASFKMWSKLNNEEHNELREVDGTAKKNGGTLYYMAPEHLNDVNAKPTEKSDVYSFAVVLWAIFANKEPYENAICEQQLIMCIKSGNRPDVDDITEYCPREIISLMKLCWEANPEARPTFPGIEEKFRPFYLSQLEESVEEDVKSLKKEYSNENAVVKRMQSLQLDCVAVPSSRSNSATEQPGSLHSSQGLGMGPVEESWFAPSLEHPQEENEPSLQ
In short: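 The readout was ADP-Glo luminescence after a 240 min rt autophosphorylation reaction with 50 μM ATP, following 30 min preincubation of 3.6 μg/ml hRIPK1 (aa 1-375) fusion with compound at 33300-1.69 nM final in 1% DMSO. Values came from Levenberg-Marquardt nonlinear fits.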

| Compound | IC50 [1] [nM] | IC50 (U937 cells) [nM] |
| --- | --- | --- |
| COc1cncc([C@@H]2CCON2C(=O)[C@H]2CC[C@H](Cn3ncc4ncc(C#N)cc43)CC2)n1 [compound 186, trans-1-[[4-[(3S)-3-(6-methoxypyrazin-2-yl)isoxazolidine-2-carbonyl]cyclohexyl]methyl]pyrazolo[4,3-b]pyridine-6-carbonitrile] | 23 | 39 |
| N#Cc1cnc2cnn(C[C@H]3CC[C@H](C(=O)N4OCC[C@H]4c4ccccn4)CC3)c2c1 [compound 187, trans-1-[[4-[(3S)-3-(2-pyridyl)isoxazolidine-2-carbonyl]cyclohexyl]methyl]pyrazolo[4,3-b]pyridine-6-carbonitrile] | 51 | 121 |
| N#Cc1cnc2ccn(C[C@H]3CC[C@H](C(=O)N4OCC[C@H]4c4ccccn4)CC3)c2c1 [compound 188, trans-1-[[4-[(3S)-3-(2-pyridyl)isoxazolidine-2-carbonyl]cyclohexyl]methyl]pyrrolo[3,2-b]pyridine-6-carbonitrile] | 37 | 124 |
| COc1cncc([C@@H]2CCON2C(=O)[C@H]2CC[C@H](Cn3cc4ccc(C#N)cc4n3)CC2)n1 [compound 189, trans-2-[[4-[(3S)-3-(6-methoxypyrazin-2-yl)isoxazolidine-2-carbonyl]cyclohexyl]methyl]indazole-6-carbonitrile] | 138 | 623 |
| COc1cncc([C@@H]2CCON2C(=O)[C@H]2CC[C@H](Cn3ncc4ccc(C#N)cc43)CC2)n1 [compound 190, trans-1-[[4-[(3S)-3-(6-methoxypyrazin-2-yl)isoxazolidine-2-carbonyl]cyclohexyl]methyl]indazole-6-carbonitrile] | 13 | 4 |
| NC(=O)c1cc(C[C@H]2CC[C@H](C(=O)N3OCC[C@H]3c3ccc(F)cc3)CC2)ccc1F [compound 191, trans-2-fluoro-5-[[4-[(3S)-3-(4-fluorophenyl)isoxazolidine-2-carbonyl]cyclohexyl]methyl]benzamide] | 10 | 9 |
| NC(=O)c1cc(C[C@H]2CC[C@H](C(=O)N3OCC[C@H]3c3cc(F)cc(F)c3)CC2)ccc1F [compound 192, trans-5-[[4-[(3S)-3-(3,5-difluorophenyl)isoxazolidine-2-carbonyl]cyclohexyl]methyl]-2-fluoro-benzamide] | 5 | 3 |
| NC(=O)c1cc(C[C@H]2CC[C@H](C(=O)N3OCC[C@H]3c3cnccn3)CC2)ccc1F [compound 193, trans-2-fluoro-5-[[4-[(3S)-3-pyrazin-2-ylisoxazolidine-2-carbonyl]cyclohexyl]methyl]benzamide] | 10 | 14 |
| N#Cc1cncc([C@@H]2CCON2C(=O)[C@H]2CC[C@H](Cc3ccc(F)c(C(N)=O)c3)CC2)c1 [compound 194, trans-5-[[4-[(3S)-3-(5-cyano-3-pyridyl)isoxazolidine-2-carbonyl]cyclohexyl]methyl]-2-fluoro-benzamide] | 21 | 10 |
| N#Cc1cc(F)cc([C@@H]2CCON2C(=O)[C@H]2CC[C@H](Cc3ccc(F)c(C(N)=O)c3)CC2)c1 [compound 195, trans-5-[[4-[(3S)-3-(3-cyano-5-fluoro-phenyl)isoxazolidine-2-carbonyl]cyclohexyl]methyl]-2-fluoro-benzamide] | 12 | 6 |
| N#Cc1ccc2cn(C[C@H]3CC[C@H](C(=O)N4OCC[C@H]4c4cnccn4)CC3)nc2c1 [compound 196, trans-2-[[4-[(3S)-3-pyrazin-2-ylisoxazolidine-2-carbonyl]cyclohexyl]methyl]indazole-6-carbonitrile] | 75 | 379 |
| Cc1ncc(F)cc1C[C@H]1CC[C@H](C(=O)N2OCC[C@H]2c2cncc(C#N)c2)CC1 [compound 197, trans-5-[(3S)-2-[4-[(5-fluoro-2-methyl-3-pyridyl)methyl]cyclohexanecarbonyl]isoxazolidin-3-yl]pyridine-3-carbonitrile] | 24 | 4 |
| Cc1nc([C@@H]2CCON2C(=O)[C@H]2CC[C@H](Cn3ccc4ncc(C#N)cc43)CC2)cs1 [compound 198, trans-1-[[4-[(3S)-3-(2-methylthiazol-4-yl)isoxazolidine-2-carbonyl]cyclohexyl]methyl]pyrrolo[3,2-b]pyridine-6-carbonitrile] | 17 | 7 |
| Cc1nc([C@@H]2CCON2C(=O)[C@H]2CC[C@H](Cn3ncc4ncc(C#N)cc43)CC2)cs1 [compound 199, trans-1-[[4-[(3S)-3-(2-methylthiazol-4-yl)isoxazolidine-2-carbonyl]cyclohexyl]methyl]pyrazolo[4,3-b]pyridine-6-carbonitrile] | 18 | 51 |

Continued, in another order:

| IC50 [1] [nM] | Compound | IC50 (U937 cells) [nM] |
| --- | --- | --- |
| 29 | N#Cc1ccc2cnn(C[C@H]3CC[C@H](C(=O)N4OCC[C@H]4c4cnccn4)CC3)c2c1 [compound 200, trans-1-[[4-[(3S)-3-pyrazin-2-ylisoxazolidine-2-carbonyl]cyclohexyl]methyl]indazole-6-carbonitrile] | 4 |
| 19 | Cc1nc([C@@H]2CCON2C(=O)[C@H]2CC[C@H](Cn3ncc4cc(C#N)ccc43)CC2)cs1 [compound 202, trans-1-[[4-[(3S)-3-(2-methylthiazol-4-yl)isoxazolidine-2-carbonyl]cyclohexyl]methyl]indazole-5-carbonitrile] | 39 |
| 125 | Cc1nc([C@@H]2CCON2C(=O)[C@H]2CC[C@H](Cn3cc4ccc(C#N)cc4n3)CC2)cs1 [compound 203, trans-2-[[4-[(3S)-3-(2-methylthiazol-4-yl)isoxazolidine-2-carbonyl]cyclohexyl]methyl]indazole-6-carbonitrile] | 432 |
| 21 | Cc1nc([C@@H]2CCON2C(=O)[C@H]2CC[C@H](Cn3ncc4ccc(C#N)cc43)CC2)cs1 [compound 204, trans-1-[[4-[(3S)-3-(2-methylthiazol-4-yl)isoxazolidine-2-carbonyl]cyclohexyl]methyl]indazole-6-carbonitrile] | 2 |
| 31 | O=C([C@H]1CC[C@H](Cc2cc(F)c3ncnn3c2)CC1)N1OCC[C@H]1c1cnccn1 [compound 205, trans-[4-[(8-fluoro-[1,2,4]triazolo[1,5-a]pyridin-6-yl)methyl]cyclohexyl]-[(3S)-3-pyrazin-2-ylisoxazolidin-2-yl]methanone] | 112 |
| 16 | N#Cc1cc(F)cc([C@@H]2CCON2C(=O)[C@H]2CC[C@H](Cc3cc(F)c4ncnn4c3)CC2)c1 [compound 206, trans-3-fluoro-5-[(3S)-2-[4-[(8-fluoro-[1,2,4]triazolo[1,5-a]pyridin-6-yl)methyl]cyclohexanecarbonyl]isoxazolidin-3-yl]benzonitrile] | 9 |
| 23 | Cc1nccn1-c1cc(F)cc(C[C@H]2CC[C@H](C(=O)N3OCC[C@H]3c3ccc(F)cc3)CC2)c1 [compound 207, trans-[4-[[3-fluoro-5-(2-methylimidazol-1-yl)phenyl]methyl]cyclohexyl]-[(3S)-3-(4-fluorophenyl)isoxazolidin-2-yl]methanone] | 53 |
